Assay results from paper PMC7496931, “Activation of Sirtuin 2 Inhibitors Employing Photoswitchable Geometry and Aqueous Solubility” (Chemmedchem, 2020).
Where “and” joins values, the source holds several entries; their conditions need not be identical. Equal values may be shown once. Read-outs that look alike come from different tables or passages of the source.

Legend:
Format in all cases: biochemical
[1] = molecular target: T1, Sirt2 (Homo sapiens, UniProt Q8IXJ6); test: Fluorescence-based ZMAL deacetylase activity assay, Sirt2; details: for decrease of Sirt2 inhibition upon 365 nm irradiation (factor) / increase of Sirt2 inhibition upon 365 nm irradiation (factor): PSS 365 nm versus thermal equilibrium
T1 construct: Expression and purification of Sirt1_133−747, Sirt2_56−356, and Sirt3_118−395 was carried out as described previously; made in house
T1 sequence (Q8IXJ6 56-356): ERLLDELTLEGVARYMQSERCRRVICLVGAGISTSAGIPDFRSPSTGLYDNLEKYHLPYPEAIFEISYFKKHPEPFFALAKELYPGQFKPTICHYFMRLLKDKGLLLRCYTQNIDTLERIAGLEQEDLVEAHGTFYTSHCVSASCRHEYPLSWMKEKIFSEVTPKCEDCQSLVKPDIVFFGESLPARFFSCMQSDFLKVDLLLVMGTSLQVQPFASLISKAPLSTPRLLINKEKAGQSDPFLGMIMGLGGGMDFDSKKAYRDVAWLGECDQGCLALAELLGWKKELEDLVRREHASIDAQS
Description: (§1) The effect of the compounds on deacetylase activity of three human sirtuin isotypes (Sirt1–3) was investigated by a homogeneous fluorescence‐based assay, using (Z)‐Lys(acetyl)‐AMC (ZMAL) as substrate. In order to determine the impact of photoisomerization, the respective compounds were irradiated (365 nm, 5 min) in DMSO prior to incubation in the enzyme assay mixture. The results of the irradiated probes were finally compared to non‐irradiated measurements.
(§2) Cloning, expression and purification of recombinant proteins: Expression and purification of Sirt1_133−747, Sirt2_56−356, and Sirt3_118−395 was carried out as described previously.27 Identity and purity were verified by SDS‐PAGE.
(§3) Fluorescence‐based activity assay: The inhibitory effect of compounds on Sirt1–3 was detected via a previously reported fluorescence‐based assay.29 The synthetic substrate (Z)‐Lys(acetyl)‐AMC (ZMAL) is deacetylated by sirtuins, followed by tryptic digestion and thereby release of 7‐aminomethylcoumarin, leading to a fluorescent readout. Inhibition was determined by comparing percentage substrate conversion to a DMSO control after subtraction of the blank fluorescence signal. All compounds were tested at 100 or 50 μM and 10 μM respectively. […] IC50 values were calculated with OriginPro 9.0 G using a non‐linear regression to fit the dose response curve (Figure S6). An enzyme‐free blank control and a 100 % conversion control using AMC instead of ZMAL were measured as well. Inhibition measurements were performed in biological duplicates for all compounds. […]
(§4) Fluorescence-Based Activity Assay (ZMAL-Assay)
(§5) The influence of the synthesized compounds on the deacetylase activity of the class I sirtuins Sirt1–3 was determined in a homogenous fluorescence-based enzyme assay, using the artificial substrate Z-(Ac)Lys-AMC (ZMAL). ZMAL is processed by sirtuins yielding Z-Lys-AMC.
(§6) The latter is subsequently cleaved by tryptic digestion, releasing 7-amino-4-methylcoumarin (AMC), excitation of which leads to a fluorescent read out (λex=390 nm; λem=460 nm). Instead, […]
(§7) contribute to the fluorescence signal. Therefore, the fluorescence intensity is proportional to the activity of the respective sirtuin.
(§8) After subtraction of the blank fluorescence signal (without enzyme) from the signal of the respective probe, the residual signal intensity is related to a 100 % conversion control (AMC), […]
(§9) yielding the percentage substrate conversion. Comparison of the determined substrate conversion with a no-inhibition DMSO control yields the percentage inhibition at the respective […]
(§10) For determination of IC50, inhibitory activity of the respective compound was determined at 8 to 10 distinct concentrations. The measured values were analysed by a non-linear fit to the dose-response curve using a four parameter logistic model (Figure S6):
(§11) Figure S6: Non-linear regression of the dose-response curves of compounds 15c and 15f at the thermal equilibrium (∆, black) and after 5 minutes of 365 nm irradiation (red). […]
(§12) A maximal polarization control using just DMSO and a minimal polarization control using 1 µL of the 400 µM solution of 22 instead of inhibitor were performed as well as a blank control containing 1 µL of DMSO in 19 µL assay buffer. The mixture was incubated 10 min at 37 °C

[2] = molecular target: T2, Sirt3 (Homo sapiens, UniProt Q9NTG7); test: Fluorescence-based ZMAL deacetylase activity assay, Sirt3; design: key to Sirt3 inhibition Δ (class) / Sirt3 inhibition PSS [365 nm] (class): n.i.: no inhibition detected (<30 % @ 100 μM); u.i.: unspecific interactions
T2 construct: Expression and purification of Sirt1_133−747, Sirt2_56−356, and Sirt3_118−395 was carried out as described previously; made in house
T2 sequence (Q9NTG7 118-395): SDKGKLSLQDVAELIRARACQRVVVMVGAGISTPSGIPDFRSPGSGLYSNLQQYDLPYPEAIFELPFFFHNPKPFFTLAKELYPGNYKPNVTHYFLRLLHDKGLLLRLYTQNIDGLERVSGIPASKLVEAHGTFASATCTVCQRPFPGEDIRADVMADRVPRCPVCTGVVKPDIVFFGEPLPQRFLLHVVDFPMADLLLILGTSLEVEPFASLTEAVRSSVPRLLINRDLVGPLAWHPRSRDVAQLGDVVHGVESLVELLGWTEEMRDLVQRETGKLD
Description: as §1, §2, §3, §4, §5, §6, §7, §8, §9, §10, §11, §12

[3] = molecular target: T3, Sirt1 (Homo sapiens, UniProt Q96EB6); test: Fluorescence-based ZMAL deacetylase activity assay, Sirt1; details: for inhibition at 10 µM: read-out: Sirt1 inhibition PSS [365 nm], percent inhibition
T3 construct: Expression and purification of Sirt1_133−747, Sirt2_56−356, and Sirt3_118−395 was carried out as described previously; made in house
T3 sequence (Q96EB6 133-747): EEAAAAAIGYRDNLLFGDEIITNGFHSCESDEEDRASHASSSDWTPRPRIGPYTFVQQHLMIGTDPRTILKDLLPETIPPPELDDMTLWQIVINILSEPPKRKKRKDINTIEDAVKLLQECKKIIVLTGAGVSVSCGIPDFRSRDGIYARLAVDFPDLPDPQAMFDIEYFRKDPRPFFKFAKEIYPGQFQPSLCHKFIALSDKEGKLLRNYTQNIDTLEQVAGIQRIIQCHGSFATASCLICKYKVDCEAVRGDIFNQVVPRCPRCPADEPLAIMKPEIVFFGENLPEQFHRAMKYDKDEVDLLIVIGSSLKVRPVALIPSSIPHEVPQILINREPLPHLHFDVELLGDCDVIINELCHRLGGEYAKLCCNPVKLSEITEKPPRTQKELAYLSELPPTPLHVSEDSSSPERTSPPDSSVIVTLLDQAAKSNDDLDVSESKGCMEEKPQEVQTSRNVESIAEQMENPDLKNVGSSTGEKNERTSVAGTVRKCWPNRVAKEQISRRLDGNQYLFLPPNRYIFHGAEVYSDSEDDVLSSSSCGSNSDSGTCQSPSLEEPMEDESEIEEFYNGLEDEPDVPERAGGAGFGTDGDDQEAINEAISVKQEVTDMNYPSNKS
Description: as §1, §2, §3, §4, §5, §6, §7, §8, §9, §10, §11
A maximal polarization control using just DMSO and a minimal polarization control using 1 µL of the 400 µM solution of 22 instead of inhibitor were performed as well as a blank control containing 1 µL of DMSO in 19 µL assay buffer. The mixture was incubated 10 min at 37 °C […]
(1 picture or pasted object on this page, not shown here)

[4] = PSS after 5 min UV irradiation (365 nm), read-out: Sirt2 inhibition PSS [365 nm], IC50
[5] = thermal equilibrium (Δ), read-out: Sirt2 inhibition Δ, IC50
[6] = PSS after 5 min UV irradiation (365 nm)
[7] = thermal equilibrium (Δ), read-out: Sirt1 inhibition Δ (class)
[8] = PSS after 5 min UV irradiation (365 nm), read-out: Sirt2 inhibition PSS [365 nm], percent inhibition (converted)
[9] = thermal equilibrium (Δ), read-out: Sirt2 inhibition Δ, percent inhibition (converted)
[10] = thermal equilibrium (Δ), read-out: Sirt2 inhibition Δ, percent inhibition
[11] = PSS after 5 min UV irradiation (365 nm), read-out: Sirt3 inhibition PSS [365 nm], percent inhibition
[12] = thermal equilibrium (Δ), read-out: Sirt3 inhibition Δ, percent inhibition
[13] = PSS after 5 min UV irradiation (365 nm), read-out: Sirt1 inhibition PSS [365 nm] (class)

SMILES	decrease of Sirt2 inhibition upon 365 nm irradiation (factor) [1]	IC50 [1, 4]	IC50 [1, 5]	decrease of Sirt3 inhibition upon 365 nm irradiation (factor) ([2]; PSS 365 nm versus thermal equilibrium)	IC50 ([2]; PSS after 5 min UV irradiation (365 nm), read-out: Sirt3 inhibition PSS [365 nm], IC50)	IC50 ([2]; thermal equilibrium (Δ), read-out: Sirt3 inhibition Δ, IC50)	inhibition at 10 µM [3, 6]	inhibition at 100 µM [3, 7]	inhibition at 10 µM [1, 8]	inhibition at 10 µM [1, 9]	inhibition at 100 µM [1, 10]	inhibition at 100 µM [2, 11]	inhibition at 100 µM [2, 12]	inhibition at 100 µM [3, 13]	inhibition at 10 µM [2, 11]	inhibition at 10 µM [2, 12]	inhibition at 100 µM ([1]; PSS after 5 min UV irradiation (365 nm), read-out: Sirt2 inhibition PSS [365 nm], percent inhibition)	Sirt3 inhibition PSS [365 nm] (class) [2, 6]	Sirt3 inhibition Δ (class) ([2]; thermal equilibrium (Δ))	increase of Sirt2 inhibition upon 365 nm irradiation (factor) [1]
CC(C)(C)OC(=O)NCc1ccc(/N=N/c2cncc(C(N)=O)c2)cc1 [15 c]	three	2.8 ± 0.1 µM	0.9 µM and 0.88 µM	fourfold	4 ± 0.7 µM	1.1 ± 0.2 µM	6%	< 30%	–	–	–	–	–	–	–	–	–	–	–	–
CC(=O)Nc1c(C)cc(/N=N/c2cncc(C(N)=O)c2)cc1C [9 a]	–	–	–	–	–	–	–	< 30%	11%	17%	65%	52%	68%	< 30%	–	–	–	–	–	–
NC(=O)c1cncc(OCc2cccc(/N=N/c3ccc(F)cc3)c2)c1 [20 b]	twofold	6.4 ± 0.5 µM	3.2 ± 0.5 µM	–	–	–	–	< 30%	–	–	–	–	–	< 30%	47%	34%	–	–	–	–
NC(=O)c1cncc(OCc2cccc(/N=N/c3ccc(OCc4ccccc4)cc3)c2)c1 [20 a]	twofold	1.6 ± 0.2 µM	0.7 ± 0.21 µM	–	–	–	–	< 30%	–	–	–	–	–	< 30%	24%	23%	–	–	–	–
Cc1cc(/N=N/c2cncc(C(N)=O)c2)cc(C)c1NC(=O)c1ccc(-c2cccs2)cc1 [9 j]	–	–	–	–	–	–	–	< 30%	–	–	80%	–	–	< 30%	–	–	59%	u.i.	u.i.	–
CC(C)(C)OC(=O)c1ccc(/N=N/c2cncc(C(N)=O)c2)cc1 [15 a]	–	6.8 ± 0.4 µM	6 ± 1.1 µM	–	–	–	7%	< 30%	–	–	–	–	–	–	45%	42%	–	–	–	–
CCCCCCCC(=O)Nc1c(C)cc(/N=N/c2cncc(C(N)=O)c2)cc1C [9 d]	–	7.9 ± 0.7 µM	44 ± 9.5 µM	–	–	–	–	< 30%	54%	26%	–	–	–	< 30%	–	–	–	u.i.	u.i.	about fivefold
CCCCCCCCCC(=O)NCc1ccc(/N=N/c2cncc(C(N)=O)c2)cc1 [15 f]	–	1.6 ± 0.2 µM	37 µM and 36.6 µM	–	–	–	–	< 30%	–	–	–	–	–	< 30%	–	–	–	n.i. (n.i.: no inhibition detected (<30 % @ 100 μM))	n.i. (n.i.: no inhibition detected (<30 % @ 100 μM))	23 fold
CCCC(=O)Nc1c(C)cc(/N=N/c2cncc(C(N)=O)c2)cc1C [9 b]	–	–	–	–	–	–	–	< 30%	4%	30%	–	52%	80%	< 30%	–	–	–	–	–	–
